Reference: US12612368B2 (Remedy Plan, Inc., priority 2019, dated 2026)
pIC50: −log10 of the molar value. Like-named read-outs stand apart in the source and are kept apart here.

Tests used:
MV-4-11 cells = assay: Cell viability in MV-4-11 cells (CellTiter Glo2); type: cell-based; details: Homo sapiens, MV4-11, 96 h, 8-point dose response, 4 days
Protocol: Approximately 10,000 MV-4-11 cells per well of a 96-well plate were treated with DMSO (no drug control) or each compound in Tables E1 and E2 in an 8-point dose response for 4 days, Cell viability was measured using CellTiter Glo2. The ICse of each compound was determined using CDD Vault.

NAMPT = target: T1, NAMPT (Homo sapiens, UniProt P43490); assay: NAMPT Activity Assay (Abcam #ab221819); type: biochemical; details: purified NAMPT, two-step reaction, OD450 nm; percent inhibition vs no drug; compound concentration not stated
T1 construct: purchased Abcam ab221819

[1] = CellTiter Glo2 (Table E2), read-out: MV-4-11 Cell Viability, MV-4-11 IC50
[2] = CellTiter Glo2 (Table E1), read-out: MV-4-11 IC50

T1 sequence (P43490 whole entry): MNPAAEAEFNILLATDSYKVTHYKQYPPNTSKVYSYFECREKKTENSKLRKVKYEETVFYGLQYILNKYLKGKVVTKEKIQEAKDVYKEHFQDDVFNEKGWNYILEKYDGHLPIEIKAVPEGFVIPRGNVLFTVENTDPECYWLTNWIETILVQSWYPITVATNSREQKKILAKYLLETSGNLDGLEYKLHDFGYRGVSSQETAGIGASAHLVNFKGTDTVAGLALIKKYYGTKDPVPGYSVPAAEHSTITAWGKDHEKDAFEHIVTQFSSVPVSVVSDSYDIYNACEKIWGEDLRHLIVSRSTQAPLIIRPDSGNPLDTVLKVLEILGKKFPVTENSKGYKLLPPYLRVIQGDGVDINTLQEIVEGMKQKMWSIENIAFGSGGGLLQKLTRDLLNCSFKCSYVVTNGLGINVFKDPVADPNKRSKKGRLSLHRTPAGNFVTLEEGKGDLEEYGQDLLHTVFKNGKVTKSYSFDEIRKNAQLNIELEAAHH

Row | pIC50 (MV-4-11 cells; [1]) | NAMPT Inhibition Code (NAMPT) | pIC50 (MV-4-11 cells; [2]) | SMILES
1 | 5.36 | A (A = <33% inhibition) |  | CC(=O)N(c1ccc(-c2ccc(C(=O)NCc3cccnc3C)cn2)cc1C)C(C)C [Compound I-512, 6-[4-[Acetyl(isopropyl)amino]-3-methyl-phenyl]-N-[(2-methyl-3-pyridyl)methyl]pyridine-3-carboxamide]
2 | 7.68 | C (C = ≥66% inhibition) |  | CCCN(C(C)=O)c1ccc(-c2ccc(C(=O)NCc3cccnc3)cn2)cc1Cl [Compound I-606, 6-[4-[Acetyl(propyl)amino]-3-chloro-phenyl]-N-(3-pyridylmethyl)pyridine-3-carboxamide]
3 | 6.86 | C (C = ≥66% inhibition) |  | CC(=O)N(c1ccc(-c2ccc(C(=O)NCc3cccnc3)cc2)cc1F)C(C)C [Compound I-630, 4-[4-[Acetyl(isopropyl)amino]-3-fluoro-phenyl]-N-(3-pyridylmethyl)benzamide]
4 | 7.42 | C (C = ≥66% inhibition) |  | CC(=O)N(CC1CCC1)c1ccc(-c2ccc(C(=O)NCc3cccnc3)cn2)cc1 [Compound I-453, 6-[4-[acetyl(cyclobutylmethyl)amino]phenyl]-N-(3-pyridylmethyl)pyridine-3-carboxamide]
5 | 6.06 | A (A = <33% inhibition) |  | COC(=O)NCCN(C(C)=O)c1ccc(-c2ccc(C(=O)NCc3cccnc3)cn2)cc1 [Compound I-466, Methyl N-[2-[N-acetyl-4-[5-(3-pyridylmethylcarbamoyl)-2-pyridyl]anilino]ethyl]carbamate]
6 |  | A (A = <33% inhibition) | < 4.52 | CCC(=O)N(C)c1ccc(-c2ccc(C(=O)NCc3ccc(F)nc3)cn2)cc1 [Compound I-393, N-[(6-fluoro-3-pyridyl)methyl]-6-[4-[methyl(propanoyl)amino]phenyl]pyridine-3-carboxamide]
7 | 5.55 | A (A = <33% inhibition) |  | CC(=O)N(CC1CC1)c1ccc(-c2ccc(C(=O)NCc3cccnc3C)cn2)cc1C [Compound I-488, 6-[4-[Acetyl(cyclopropylmethyl)amino]-3-methyl-phenyl]-N-[(2-methyl-3-pyridyl)methyl]pyridine-3-carboxamide]
8 |  | A (A = <33% inhibition) | 5.37 | CCC(=O)N(C)c1ccc(-c2ccc(C(=O)NCc3ccc(F)nc3C)cn2)cc1 [Compound I-390, N-[(6-fluoro-2-methyl-3-pyridyl)methyl]-6-[4-[methyl(propanoyl)amino]phenyl]pyridine-3-carboxamide]
9 | 6.98 | A (A = <33% inhibition) |  | CCC(=O)N(C)c1ccc(-c2ccc(C(=O)NCc3ccc(C)nc3C)cc2)cc1Cl [Compound I-481, 4-[3-chloro-4-[methyl(propanoyl)amino]phenyl]-N-[(2,6-dimethyl-3-pyridyl)methyl]benzamide]
10 | 5.36 | A (A = <33% inhibition) |  | COC(=O)NCCN(C(C)=O)c1ccc(-c2ccc(C(=O)NCc3cccnc3C)cn2)cc1C [Compound I-487, Methyl N-[2-[N-acetyl-2-methyl-4-[5-[(2-methyl-3-pyridyl)methylcarbamoyl]-2-pyridyl]anilino]ethyl]carbamate]
11 | 7.97 | C (C = ≥66% inhibition) |  | CC(=O)N(c1ccc(-c2ccc(C(=O)NCc3cccnc3)cn2)cc1C)C(C)C [Compound I-495, 6-[4-[Acetyl(isopropyl)amino]-3-methyl-phenyl]-N-(3-pyridylmethyl)pyridine-3-carboxamide]
12 |  | B (B = ≥33 to <66% inhibition) | 6.09 | CC(C)CN(CC(C)C)c1ccc(-c2ccc(C(=O)NCc3cccnc3)cc2)cc1 [Compound I-406, 4-[4-(diisobutylamino)phenyl]-N-(3-pyridylmethyl)benzamide]
13 | 7.48 | B (B = ≥33 to <66% inhibition) |  | CC(=O)N(CCC(F)(F)F)c1ccc(-c2ccc(C(=O)NCc3cccnc3)cn2)cc1Cl [Compound I-604, 6-[4-[Acetyl(3,3,3-trifluoropropyl)amino]-3-chloro-phenyl]-N-(3-pyridylmethyl)pyridine-3-carboxamide]
14 | 7.87 | C (C = ≥66% inhibition) |  | CC(=O)N(CC1CC1)c1ccc(-c2ccc(C(=O)NCc3cccnc3)cn2)cc1C [Compound I-609, 6-[4-[Acetyl(cyclopropylmethyl)amino]-3-methyl-phenyl]-N-(3-pyridylmethyl)pyridine-3-carboxamide]
15 | < 4.52 | A (A = <33% inhibition) |  | CC(=O)N(C)c1ccc(-c2ccc(C(=O)NCc3cccnc3C)cn2)cc1C#N [Compound I-456, 6-[4-[acetyl(methyl)amino]-3-cyano-phenyl]-N-[(2-methyl-3-pyridyl)methyl]pyridine-3-carboxamide]
16 | 6.10 | A (A = <33% inhibition) |  | CCC(=O)N(C)c1ccc(-c2ccc(C(=O)NCc3ccc(NCCN)nc3)cn2)cc1C [Compound I-527, N-((6-((2-aminoethyl)amino)pyridin-3-yl)methyl)-6-(3-methyl-4-(N-methylpropionamido)phenyl)nicotinamide]
17 | 6.45 | B (B = ≥33 to <66% inhibition) |  | CC(=O)N(CCC(F)F)c1ccc(-c2ccc(C(=O)NCc3cccnc3)cn2)cc1 [Compound I-629, 6-[4-[Acetyl(3,3-difluoropropyl)amino]phenyl]-N-(3-pyridylmethyl)pyridine-3-carboxamide]
18 | 7.20 | B (B = ≥33 to <66% inhibition) |  | CC(=O)N(CCC(F)(F)F)c1ccc(-c2ccc(C(=O)NCc3cccnc3)cn2)cc1C [Compound I-601, 6-[4-[Acetyl(3,3,3-trifluoropropyl)amino]-3-methyl-phenyl]-N-(3-pyridylmethyl)pyridine-3-carboxamide]
19 | 5.65 | A (A = <33% inhibition) |  | CC(=O)N(CC1CC1)c1ccc(-c2ccc(C(=O)NCc3ccc(C)nc3C)cn2)cc1C [Compound I-489, 6-[4-[Acetyl(cyclopropylmethyl)amino]-3-methyl-phenyl]-N-[(2,6-dimethyl-3-pyridyl)methyl]pyridine-3-carboxamide]
20 | 6.46 | B (B = ≥33 to <66% inhibition) |  | CC(=O)N(CC1CC1)c1ccc(-c2ccc(C(=O)NCc3ccnc(N)c3)cn2)cc1Cl [Compound I-674, 6-[4-[Acetyl(cyclopropylmethyl)amino]-3-chloro-phenyl]-N-[(2-amino-4-pyridyl)methyl]pyridine-3-carboxamide]
21 | 5.58 | A (A = <33% inhibition) |  | CC(=O)N(CCC#N)c1ccc(-c2ccc(C(=O)NCc3cccnc3)cn2)cc1 [Compound I-484, 6-[4-[acetyl(2-cyanoethyl)amino]phenyl]-N-(3-pyridylmethyl)pyridine-3-carboxamide]
22 | 6.36 | A (A = <33% inhibition) |  | CCC(=O)N(C)c1ccc(-c2ccc(C(=O)NCc3cccnc3)cn2)cc1 [Compound I-331, 6-[4-[Methyl(propanoyl)amino]phenyl]-N-(3-pyridylmethyl)pyridine-3-carboxamide]
23 |  | A (A = <33% inhibition) | 5.66 | CCCN(C(C)=O)c1ccc(-c2ccc(C(=O)NCc3cccnc3C)cn2)cc1C [Compound I-446, 6-[4-[acetyl(propyl)amino]-3-methyl-phenyl]-N-[(2-methyl-3-pyridyl)methyl]pyridine-3-carboxamide]
24 | 5.77 | A (A = <33% inhibition) |  | CCCN(C(C)=O)c1ccc(-c2ccc(C(=O)NCc3cccnc3C)cn2)cc1Cl [Compound I-458, 6-[4-[acetyl(propyl)amino]-3-chloro-phenyl]-N-[(2-methyl-3-pyridyl)methyl]pyridine-3-carboxamide]
25 | 5.61 | A (A = <33% inhibition) |  | CC(=O)N(CC1CC(F)(F)C1)c1ccc(-c2ccc(C(=O)NCc3cccnc3C)cn2)cc1 [Compound I-517, 6-[4-[Acetyl-[(3,3-difluorocyclobutyl)methyl]amino]phenyl]-N-[(2-methyl-3-pyridyl)methyl]pyridine-3-carboxamide]
26 |  | B (B = ≥33 to <66% inhibition) | 6.90 | CCCCN(C(C)=O)c1ccc(-c2ccc(C(=O)NCc3cccnc3)cn2)cc1 [Compound I-411, 6-[4-[acetyl(butyl)amino]phenyl]-N-(3-pyridylmethyl)pyridine-3-carboxamide]
27 | 7.44 | C (C = ≥66% inhibition) |  | COC(=O)c1cc(-c2ccc(C(=O)NCc3cccnc3)cn2)ccc1N(C)C(C)=O [Compound I-662, Methyl 2-[acetyl(methyl)amino]-5-[5-(3-pyridylmethylcarbamoyl)-2-pyridyl]benzoate]
28 |  | C (C = ≥66% inhibition) | 6.03 | CCC(=O)N(C)c1ccc(-c2ccc(C(=O)Nc3cccnc3)cn2)cc1 [Compound I-353, 6-[4-[methyl(propanoyl)amino]phenyl]-N-(3-pyridyl)pyridine-3-carboxamide]
29 | 5.36 | A (A = <33% inhibition) |  | CC(=O)N(CC(C)C)c1ccc(-c2ccc(C(=O)NCc3cccnc3C)cn2)cc1 [Compound I-467, 6-[4-[Acetyl(isobutyl)amino]phenyl]-N-[(2-methyl-3-pyridyl)methyl]pyridine-3-carboxamide]
30 |  | A (A = <33% inhibition) | 6.16 | CC(=O)N(CCNC(=O)OC(C)(C)C)c1ccc(-c2ccc(C(=O)NCc3cccnc3)cn2)cc1 [Compound I-448, tert-butyl N-[2-[N-acetyl-4-[5-(3-pyridylmethylcarbamoyl)-2-pyridyl]anilino]ethyl]carbamate]
